Assay results published in PMC9785606, “Design and Synthesis of Novel Phenylahistin Derivatives Based on Co-Crystal Structures as Potent Microtubule Inhibitors for Anti-Cancer Therapy” (Marine Drugs, 2022).
Marks after values point to notes of the source that are not given here.

What was measured:
[1] = system: human lung cancer NCI-H460 cell line; test: MTT cytotoxicity assay, lung cancer NCI-H460 cell line; type: cell-based; conditions: mean ± SD
Experimental: (§1) Human cancer cell lines (lung cancer NCI-H460 cell line, pancreatic cancer BxPC-3 cell line, colon cancer HT-29 cell line) were purchased from American Type Cell Culture Collection (ATCC, Manassas, VA, USA). Cells were maintained in RPMI-1640 medium supplemented with 10% (v/v) heat-inactivated fetal bovine serum, penicillin-streptomycin (100 U/mL-100 […]) at 37 °C in a humidified atmosphere (5% CO2–95% air). All tested derivatives were dissolved in 100% cell culture grade DMSO. Cells (3 × 10^3 per well) were seeded in 96-well plates for 24 h. Then, cells were treated with the tested compounds in six concentrations for 72 h. Cell viability was assessed by MTT assay. The absorbance at 490 nm was measured with a Microplate Reader (Molecular Devices, Silicon Valley, CA, USA). The data were analyzed by Origin 8.5 (OriginLab, Northampton, MA, USA).

[2] = system: pancreatic cancer BxPC-3 cell line; test: MTT cytotoxicity assay, pancreatic cancer BxPC-3 cell line; type: cell-based; conditions: Homo sapiens, 72 h, mean ± SD
Experimental: as §1

[3] = system: colon cancer HT-29 cell line; test: MTT cytotoxicity assay, colon cancer HT-29 cell line; type: cell-based; conditions: Homo sapiens, 72 h, mean ± SD
Experimental: as §1

[4] = system: microtubules in NCI-H460 cells; test: Immunofluorescence assay of microtubules (β-tubulin/DAPI staining); type: cell-based, human; conditions: 24 h
Experimental: To further explore the effect of phenylahistin derivatives 1 and 15p on microtubules in cancer cells, an immunofluorescence assay was performed. […] The inhibitory activities were consistent with the previously shown anti-proliferative activities.
NCI-H460 cells were seeded in 24-well plate (with coverslips plated) at the density of 5 × 10^4 cells. […] Then, cells were fixed with 4% cold paraformaldehyde at 4 °C for 15 min and then permeabilized in 0.05% Triton X-100 for 10 min. The cells were blocked in 1% BSA for 30 min. Microtubules were detected by incubation with a monoclonal anti-β-tubulin (β-tubulin antibody was obtained from Servicebio, Wuhan, China.) at 4 °C for 12 h. Subsequently, the cells were washed with PBS and incubated with a FITC-conjugated anti-mouse IgG antibody. Nuclei were stained with DAPI (G1012, Servicebio, Wuhan, China). The coverslips were visualized under fluorescence microscope (Nikon Eclipse C1, Nikon, Japan) and an image-forming system (Nikon DS-U3, Nikon, Tokyo, Japan).

[5] = system: H22 hepatoma carcinoma cells transplanted tumor; test: H22 subcutaneous transplanted tumor model, intravenous administration; conditions: for Tumor Volume (D15): 14 consecutive days; for Tumor Volume (D1): D1 (baseline), mean ± SD; for Tumor Weight: excised at end of administration; for IR (tumor weight inhibition rate): IR = (1 − TWt/TWc) × 100%
Experimental: The anticancer effect of the compound 15p was further evaluated against H22 tumor-bearing mice models by intravenous injection at doses of 2 mg/kg, or 4 mg/kg, two or three times a week, and for 14 consecutive days. Docetaxel (10 mg/kg), plinabulin (4 mg/kg), and cyclophosphamide (20 mg/kg) were used as the positive controls.
Balb/c mice (4–6 weeks old, 16–18 g) were purchased from Shanghai Sippr-BK laboratory animal Co. Ltd. The animal study protocol was approved by Institutional Review Board of Science and Technology Division of Linyi University (review opinion on behalf of the Ethics Committee) (The protocol code is LYU20220107, provided on 10 March 2022). H22 cells were grown in RPMI-1640 midium supplemented with 10% fetal bovine serum, and maintained at 37 °C in humidified 5% CO2. Cells were passaged when they reached 70–80% confluence. Viable H22 cells (1 × 10^7 cells/0.2 ml 0.9% sodium chloride) were injected into the peritoneal cavity of BALB/C mice to trigger ascitic cell growth. Later, cells were harvested and suspended. H22 cancer cells (2 × 10^7 cells/0.1 ml 0.9% sodium chloride cells) were subcutaneously injected into the right flank of each mouse. After implantation, the tumor size was measured with an electronic caliper twice a week, and the tumor volume was calculated according to the following formula: tumor volume (mm^3) = 0.5 × length × width^2. When the tumor volume reached about 130 mm^3, the xenograft tumor-bearing BALB/C mice were randomly placed into six groups at 10 mice per group: vehicle, plinabulin (4 mg/kg), 15p ([…]), 15p ([…]), cyclophosphamide (20 mg/kg) and docetaxel (10 mg/kg) groups. Docetaxel, plinabulin, and cyclophosphamide were chosen as positive control drug. The reference compound docetaxel and cyclophosphamide were completely dissolved in isotonic saline. […] The solution of compound 15p was diluted with the concentrated solution and in isotonic saline at a calculated ratio. The solutions of plinabulin were made up according to similar methods. The mice received intravenous administration (iv) every two or three days for consecutive 14 days. The tumor volumes and the body weights were recorded every two or three days after treatment. At the end of the administration period, the animals were euthanized by dislocation, and the tumor bulks were peeled off conforming to the Guide for the Animal use and Management of Shanghai Medicilon Biological Medicine Co. Ltd. The tumor volume was calculated according to the Principles of Non-clinical Research Techniques for Anti-tumor Drugs of Cytotoxic Drugs by China Food and Drug Administration.

caspase-3 = test: Western blotting of caspase-3 expression; type: cell-based
Experimental: Western blot was performed as previously described with antibody caspase-3 (1:1000) (WB0177/WB0176) or GAPDH (1:3000) (WB0197/WB0196, Shanghai Wei-Ao Biotechnology Co., Shanghai, China). Densities of the Western blotting bands were quantified using ImageJ 19.0. (NIH, Bethesda, MD, USA).

[6] = 20 mg/kg iv, listed as cyclophosphamide
[7] = 4 mg/kg iv, listed as plinabulin
[8] = 10 mg/kg iv, listed as docetaxel

SMILES	melting point [°C]	IC50 ([1]; Homo sapiens, NCI-H460, 72 h) [nM]	further results
CCCCn1cnc(/C=c2\[nH]c(=O)/c(=C/c3cccc(C(=O)c4ccc(F)cc4)c3)[nH]c2=O)c1C(C)C [15k]	198 to 201	0.94 ± 0.11	
Cc1c(/C=c2\[nH]c(=O)/c(=C/c3cccc(C(=O)c4ccc(F)cc4)c3)[nH]c2=O)ncn1C [15a]	224 to 226	21.1	IC50 ([1]; 72 h): 21.1 ± 1.3 nM
CC(C)(C)c1[nH]cnc1/C=c1\[nH]c(=O)/c(=C/c2cccc(C(=O)c3ccc(F)cc3)c2)[nH]c1=O [compound 1]			Effect on microtubule networks ([4]; 2 nM): microtubule networks were damaged
Cc1c(/C=c2\[nH]c(=O)/c(=C/c3cccc(C(=O)c4ccc(F)cc4)c3)[nH]c2=O)ncn1CCNC(=O)OC(C)(C)C [15l]	189 to 191	105 ± 11.7	
CCn1cnc(/C=c2\[nH]c(=O)/c(=C/c3cccc(C(=O)c4ccc(F)cc4)c3)[nH]c2=O)c1C(C)C [15f]	234 to 236	2.01 ± 0.19	
CCCn1cnc(/C=c2\[nH]c(=O)/c(=C/c3cccc(C(=O)c4ccc(F)cc4)c3)[nH]c2=O)c1C [15g]	214 to 216	4.93 ± 0.25	
CCCn1cnc(/C=c2\[nH]c(=O)/c(=C/c3cccc(C(=O)c4ccc(F)cc4)c3)[nH]c2=O)c1C(C)C [15i]	200 to 202	1.67 ± 0.15	
CCn1cnc(/C=c2\[nH]c(=O)/c(=C/c3cccc(Oc4ccc(F)cc4)c3)[nH]c2=O)c1C(C)C [15e]	195 to 198	12.2 ± 0.27	
O=P1(N(CCCl)CCCl)NCCCO1 (stereo not drawn) [Cyclophosphamide]			Body weight compared to the control group ([5]; 20 mg/kg iv): decreased the body weights; Tumor Volume (D15) ([5]; 20 mg/kg iv): 687.2 ± 288.6* mm^3; Tumor Volume (D15) [5, 6]: 687.2 mm^3; Tumor Volume (D1) ([5]; 20 mg/kg iv): 105.1 ± 30.26 mm^3; Tumor Weight ([5]; 20 mg/kg iv): 0.42 ± 0.24 g; Tumor Weight [5, 6]: 0.42 g; IR (tumor weight inhibition rate) ([5]; 20 mg/kg iv): 62.6%
CC(C)c1c(/C=c2\[nH]c(=O)/c(=C/c3cccc(Oc4ccc(F)cc4)c3)[nH]c2=O)ncn1C [15b]	218 to 219	40.4 ± 0.82	
CCCn1cnc(/C=c2\[nH]c(=O)/c(=C/c3cccc(Oc4ccc(F)cc4)c3)[nH]c2=O)c1C(C)C [15h]	201 to 203	5.4 ± 0.15	
CCCCn1cnc(/C=c2\[nH]c(=O)/c(=C/c3cccc(Oc4ccc(F)cc4)c3)[nH]c2=O)c1C(C)C [15j]	203 to 204	2.49 ± 0.28	Expression of caspase-3 vs control group and plinabulin group (caspase-3): significantly higher; IC50 [2]: 1.13 ± 0.35 nM; IC50 [3]: 2.11 ± 0.09 nM
CC(C)(C)c1[nH]cnc1/C=c1\[nH]c(=O)/c(=C/c2ccccc2)[nH]c1=O [Plinabulin]		26.2 ± 3.2	IC50 [2]: 5.8 ± 0.2 nM; IC50 [3]: 6.6 ± 1.6 nM; Tumor Volume (D15) ([5]; 4 mg/kg iv): 1425.3 ± 411.2 mm^3; Tumor Volume (D15) [5, 7]: 1425.3 mm^3; Tumor Volume (D1) ([5]; 4 mg/kg iv): 104.7 ± 26.66 mm^3; Tumor Weight ([5]; 4 mg/kg iv): 0.77 ± 0.31 g; Tumor Weight [5, 7]: 0.77 g; IR (tumor weight inhibition rate) ([5]; 4 mg/kg iv): 31.9%; Effect on microtubule networks ([4]; 10 nM): microtubule networks were damaged
CCn1cnc(/C=c2\[nH]c(=O)/c(=C/c3cccc(C(=O)c4ccc(F)cc4)c3)[nH]c2=O)c1C [15d]	227 to 229	16.9 ± 1.5	
CC(C)c1c(/C=c2\[nH]c(=O)/c(=C/c3cccc(C(=O)c4ccc(F)cc4)c3)[nH]c2=O)ncn1C [15c]	225 to 227	3.65 ± 0.18	
CC(=O)O[C@@]12CO[C@@H]1C[C@H](O)[C@@]1(C)C(=O)[C@H](O)C3=C(C)[C@@H](OC(=O)[C@H](O)[C@@H](NC(=O)OC(C)(C)C)c4ccccc4)C[C@@](O)([C@@H](OC(=O)c4ccccc4)[C@H]21)C3(C)C [Docetaxel]			Tumor Volume (D15) ([5]; 10 mg/kg iv): 903.6 ± 421.7* mm^3; Tumor Volume (D15) [5, 8]: 903.6 mm^3; Tumor Volume (D1) ([5]; 10 mg/kg iv): 103.6 ± 30.75 mm^3; Tumor Weight ([5]; 10 mg/kg iv): 0.55 ± 0.22 g; Tumor Weight [5, 8]: 0.55 g; IR (tumor weight inhibition rate) ([5]; 10 mg/kg iv): 51.6%
CC(C)c1c(/C=c2\[nH]c(=O)/c(=C/c3cccc(C(=O)c4ccc(F)cc4)c3)[nH]c2=O)ncn1CCNC(=O)OC(C)(C)C [15m]	204 to 206	27.3 ± 1.32	

The next lines start with results.

melting point [°C]	SMILES	IC50 ([1]; Homo sapiens, NCI-H460, 72 h) [nM]	further results
150 to 152	C#CCn1cnc(/C=c2\[nH]c(=O)/c(=C/c3cccc(C(=O)c4ccc(F)cc4)c3)[nH]c2=O)c1C(C)C [15q]	1.49 ± 0.31	IC50 [2]: 1.15 ± 0.042 nM; IC50 [3]: 0.67 ± 0.035 nM
206 to 208	Cc1c(/C=c2\[nH]c(=O)/c(=C/c3cccc(C(=O)c4ccc(F)cc4)c3)[nH]c2=O)ncn1CCCNC(=O)OC(C)(C)C [15n]	145.7 ± 0.27	
247 to 248	Cc1c(/C=c2\[nH]c(=O)/c(=C/c3cccc(C(=O)c4ccc(F)cc4)c3)[nH]c2=O)ncn1CCCN [16c]	103 ± 11.7	
190 to 192	CC(C)c1c(/C=c2\[nH]c(=O)/c(=C/c3cccc(C(=O)c4ccc(F)cc4)c3)[nH]c2=O)ncn1CCN [16b]	11.3	IC50 ([1]; 72 h): 11.3 ± 3.45 nM; IC50 [2]: 3.27 ± 0.09 nM; IC50 [3]: 5.92 ± 0.39 nM
179 to 180	CC(C)c1c(/C=c2\[nH]c(=O)/c(=C/c3cccc(C(=O)c4ccc(F)cc4)c3)[nH]c2=O)ncn1CCCNC(=O)OC(C)(C)C [15o]	12.7 ± 0.71	
180 to 182	Cc1c(/C=c2\[nH]c(=O)/c(=C/c3cccc(C(=O)c4ccc(F)cc4)c3)[nH]c2=O)ncn1CCN [16a]	33.4 ± 9.59	
199 to 201	CC(C)c1c(/C=c2\[nH]c(=O)/c(=C/c3cccc(C(=O)c4ccc(F)cc4)c3)[nH]c2=O)ncn1CCCN [16d]	5.38 ± 1.46	IC50 [2]: 2.35 ± 1.75 nM; IC50 [3]: 2.45 ± 0.42 nM
